Assay results as given in patent US9724351B2, “Compounds for the treatment of paramoxyvirus viral infections” (priority 2012, dated 2017).
pEC50: −log10 of the molar value.

How the values were obtained:
[1] = Cytotoxicity Determination; assay type: cell-based; details: human, HEp-2 cells, without addition of virus, CCK-8 readout, bins (Table 4: greater than 100 μM; Table 5: equal to or less than 100 μM and greater than 10 μM), read-out: 50% cytotoxicity concentration (CC50)
How it was run: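 CC50 was derived from CCK-8 optical density after a 3-4 h reagent incubation. Before that, cells without virus had been treated for 5 days at 37 °C, 5% CO2 with compound at seven ½-step final concentrations from 100 μM, in duplicate wells.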

[2] = system: Respiratory Syncytial Virus (RSV) long strain (ATCC#VR-26); assay: RSV Antiviral Assay (CPE reduction assay); assay type: cell-based; details: human respiratory syncytial virus, 120 h; HEp-2 cells infected with RSV long strain, 5 days, CCK-8 readout; bins (Table 2: less than 1 μM; Table 3: equal to or higher than 1 μM and less than 50 μM); read-out: 50% effective concentration (EC50)
How it was run: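 Cytopathic-effect protection measured after 5 days at 37 °C, 5% CO2 via CCK-8 dehydrogenase readout at 450 nm (630 nm reference), EC50 regressed from mean O.D. Host HEp-2 cells received RSV long strain at 100 TCID50/well; compound 9-point ⅓ series starting 100 μM or 1 μM, 1% DMSO, duplicate wells.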

| Compound | CC50 at 5 days [1] [µM] | pEC50 [2] |
| --- | --- | --- |
| COc1cc(C(=O)NCC(=O)c2cccc(-c3csc4c(F)cccc34)n2)ccc1OCc1nc[nH]n1 [Compound 1242] | 10 to 100 | 4.30 to 6.00 |
| COc1ccc(C(=O)NCC(=O)c2cccc(-n3ncc4c(F)cccc43)n2)cc1OC [Compound 2601] | > 100 | 4.30 to 6.00 |
| COc1ccc(C(=O)NCC(=O)c2ccc(OC)c(-c3ccc4cnn(C)c4c3)n2)cc1OC [Compound 1503] | 10 to 100 | 4.30 to 6.00 |
| COc1ccc(C(=O)NCC(=O)N2CCCN(c3csc4c(F)cccc34)C2=O)cc1OC [Compound 2800] | 10 to 100 | 4.30 to 6.00 |
| COc1ccc(C(=O)NCC(=O)N/N=C/c2csc3c(Cl)cccc23)cc1OC [Compound 400-12] | 10 to 100 | 4.30 to 6.00 |
| CCOc1ccc(C(=O)NCC(=O)Nc2nc3cc(Cl)ccc3n2CCOC)cc1OC [Compound 911] | 10 to 100 | 4.30 to 6.00 |
| CCCCC/C(=N\NC(=O)CNC(=O)c1ccc(OC)c(OC)c1)c1csc2ccccc12 [Compound 448A] | 10 to 100 | 4.30 to 6.00 |
| COc1cc(C(=O)NCC(=O)c2cc(C(C)(C)C)cc(-c3ccc(F)c(Cl)c3)n2)ccc1OCCO [Compound 2115] | 10 to 100 | > 6.00 |
| COc1cc(C(=O)NCC(=O)c2ccc(OC)c(-c3ccc(Cl)c(C(F)(F)F)c3)n2)ccc1OCCO [Compound 1623] | > 100 | > 6.00 |
| CCOc1ccc(C(=O)NCC(=O)N(C)/N=C/c2csc3c(F)cccc23)cc1OC [Compound 400-25] | > 100 | > 6.00 |
| COc1ccc(C(=O)NCC(=O)c2ccc(OC)c(-c3ccc4cn(C)nc4c3)n2)cc1OC [Compound 1538] | > 100 | 4.30 to 6.00 |
| COc1cc(C(=O)NCC(=O)N/N=C(\C)c2csc3ccccc23)ccc1OCCO [Compound 600] | > 100 | > 6.00 |
| COc1ccc(C(=O)NCC(=O)c2ccc(OC)c(-c3cn[nH]c3)n2)cc1OC [Compound 1533] | > 100 | 4.30 to 6.00 |
| COc1ccc(C(=O)NCC(=O)N/N=C(\C)c2noc3ccccc23)cc1OC [Compound 491] | > 100 | 4.30 to 6.00 |
| COc1ccc(C(=O)NCC(=O)N/N=C(\CCO)c2csc3c(F)cccc23)cc1OC [Compound 400-13] | > 100 | 4.30 to 6.00 |
| COc1cc(NCCC(=O)N(C)/N=C/c2csc3c(F)cccc23)ccc1OCCO [Compound 2305] | 10 to 100 | 4.30 to 6.00 |
| CCN(C)c1ccc(C(=O)NCC(=O)N/N=C(\C)c2csc3ccccc23)cc1OC [Compound 512] | 10 to 100 | 4.30 to 6.00 |
| COc1cc(C(=O)NCC(=O)c2ccc(OC)c(-c3ccc(F)c(C#N)c3)n2)ccc1OCCO [Compound 1615] | > 100 | 4.30 to 6.00 |
| CCNc1ccc(C(=O)NCC(=O)N/N=C(\C)c2csc3ccccc23)cc1 [Compound 501] | 10 to 100 | 4.30 to 6.00 |
| COc1ccc(C(=O)NCC(=O)c2ccc(OC)c(-c3cccc(F)c3F)n2)cc1OC [Compound 1526] | > 100 | 4.30 to 6.00 |

| Compound | CC50 at 5 days [1] [µM] | pEC50 [2] |
| --- | --- | --- |
| COc1ccc(C(=O)NCC(=O)N/N=C(\CF)c2csc3ccccc23)cc1OC [Compound 444] | > 100 | 4.30 to 6.00 |
| COc1cc(C(=O)N[C@@H](CCCCN)C(=O)c2ccc(OC)c(-c3csc4c(F)cccc34)n2)ccc1OCCO [Compound 1835] | 10 to 100 | > 6.00 |
| COc1cc(C(=O)NCC(=O)c2ccc(OC)c(-c3ccc(F)c(Cl)c3)n2)ccc1OCC(N)=O [Compound 1316] | > 100 | > 6.00 |
| COc1cc(C(=O)NCC(=O)c2ccc(OC)c(-c3c[s+]([O-])c4c(F)cccc34)n2)ccc1OCCO (stereo not shown) [Compound 3302] | 10 to 100 | > 6.00 |
| COc1cc(C(=O)NCC(=O)c2ccc(OC(F)(F)F)c(-c3csc4c(F)cccc34)n2)ccc1OCCO [Compound 2107] | 10 to 100 | 4.30 to 6.00 |
| COc1cc(OC)c(C(=O)NCC(=O)N/N=C(\C)c2csc3ccccc23)cc1OC [Compound 480] | > 100 | 4.30 to 6.00 |
| COc1cc(-c2nc(C(=O)CNC(=O)c3ccc(OCCO)c(OC)c3)ccc2OC)ccc1F [Compound 1329] | > 100 | > 6.00 |
| COc1ccc(C(=O)NCC(=O)c2ccnc(-c3csc4c(F)cccc34)c2O)cc1OC [Compound 2102] | 10 to 100 | 4.30 to 6.00 |
| CCOC(=O)c1c[nH]c2c(/C=N/NC(=O)CNC(=O)c3ccc(OC)c(OC)c3)csc2c1=O [Compound 498] | > 100 | 4.30 to 6.00 |
| COc1ccc(C(=O)NCC(=O)c2ccc(OC)c(-c3ccc4[nH]cnc4c3)n2)cc1OC [Compound 1534] | > 100 | 4.30 to 6.00 |
| C/C=C\c1cc(C(=O)CNC(=O)c2ccc(OC)c(OC)c2)nc(-c2csc3c(F)cccc23)c1 [Compound 1243] | > 100 | 4.30 to 6.00 |
| COc1cc(C(=O)NCC(=O)c2cccc(-c3csc4c(F)cccc34)n2)ccc1OCC(=O)O [Compound 1248] | 10 to 100 | 4.30 to 6.00 |
| COc1ccc(C(=O)NCC(=O)N/N=C/c2csc3cc(F)ccc23)cc1OC [Compound 400-17] | 10 to 100 | 4.30 to 6.00 |
| CCNc1ccc(C(=O)NCC(=O)N/N=C(\C)c2csc3ccccc23)cc1OC [Compound 508] | > 100 | 4.30 to 6.00 |
| COc1ccc(C(=O)CNC(=O)c2ccnc(C)c2)nc1-c1ccc(F)c(Cl)c1 [Compound 4204] | > 100 | 4.30 to 6.00 |
| COc1ccc(C(=O)NCC(=O)c2ccc(OC)c(-c3c(C)sc4cccnc34)n2)cc1OC [Compound 1502] | > 100 | 4.30 to 6.00 |
| COCC/C(=N\NC(=O)CNC(=O)c1ccc(OC2COC2)c(OC)c1)c1csc2c(F)cccc12 [Compound 514A] | > 100 | > 6.00 |
| CCCC/C(=N\NC(=O)CNC(=O)c1ccc(OC)c(OC)c1)c1csc2ccccc12 [Compound 423] | > 100 | > 6.00 |
| COc1ccc(C(=O)NCC(=O)c2ccc(OC)c(-c3ccc(N4CCCCC4)cc3)n2)cc1OC [Compound 1524] | > 100 | 4.30 to 6.00 |
| COc1cc(C(=O)NCC(=O)c2ccc(OC)c(-c3ccc(F)c(Cl)c3)n2)ccc1-n1cccn1 [Compound 2649] | 10 to 100 | 4.30 to 6.00 |

| Compound | CC50 at 5 days [1] [µM] | pEC50 [2] |
| --- | --- | --- |
| COc1cc(C(=O)NCC(=O)c2ccc(OC)c(-c3ccc(F)c(Cl)c3)n2)ccc1OCCF [Compound 2648] | > 100 | > 6.00 |
| COc1ccc(C(=O)NCC(=O)c2cc(Cl)cc(-c3csc4c(F)cccc34)n2)cc1OC [Compound 2604] | > 100 | 4.30 to 6.00 |
| COCC/C(=N/NC(=O)CNC(=O)c1ccc(OC)c(OC)c1)c1csc2c(F)cccc12 [Compound 400-16] | > 100 | 4.30 to 6.00 |
| COc1cc(C(=O)NCC(=O)c2ccc(OC)c(-c3ccc(F)c(C(F)(F)F)c3)n2)ccc1OCCO [Compound 1614] | > 100 | > 6.00 |
| COc1ccc(C(=O)NCC(=O)c2ccc(OC)c(-c3ccc(C(F)(F)F)cc3)n2)cc1OC [Compound 1531] | > 100 | > 6.00 |
| COc1cc(C(=O)NCC(=O)c2ccc(OC)c(-c3csc4c(F)cccc34)n2)ccc1OCCN [Compound 1232] | 10 to 100 | > 6.00 |
| COc1ccc(C(=O)NCC(=O)N/N=C/c2c(C)n(C)c3ccccc23)cc1OC [Compound 486] | 10 to 100 | 4.30 to 6.00 |
| COc1cc(C(=O)NCC(=O)c2cc(OC)c(OC)c(-c3csc4c(F)cccc34)n2)ccc1OCCO [Compound 2108] | > 100 | > 6.00 |
| COc1ccc(C(=O)NCC(=O)N/N=C(\C)c2csc3ncccc23)cc1OC [Compound 400-10] | > 100 | 4.30 to 6.00 |
| COc1cc(C(=O)NCC(=O)c2ccc(OC)c(-c3csc4ccncc34)n2)ccc1OCCO [Compound 1621] | > 100 | 4.30 to 6.00 |
| COc1ccc(C(=O)NCC(=O)c2cc(C=C(C)C)cc(-c3csc4c(F)cccc34)n2)cc1OC [Compound 1238] | > 100 | 4.30 to 6.00 |
| COc1cc(C(=O)NCC(=O)c2ccc(OC)c(-c3cnn4ccccc34)n2)ccc1OCCO [Compound 1345] | > 100 | 4.30 to 6.00 |
| COc1ccc(C(=O)NCC(=O)c2ccc(OC)c(-c3ccccc3C#N)n2)cc1OC [Compound 1516] | 10 to 100 | 4.30 to 6.00 |
| COc1ccc(C(=O)NCC(=O)N/N=C2\CCc3sc4ccccc4c32)cc1OC [Compound 418] | 10 to 100 | 4.30 to 6.00 |
| CCCC/C(=N\NC(=O)CNC(=O)c1cc(OC)c(OC)cc1Br)c1csc2ccccc12 [Compound 245] | 10 to 100 | 4.30 to 6.00 |
| COc1cc(C(=O)CNC(=O)c2ccc(OC)c(OC)c2)nc(-c2ccc3[nH]nnc3c2)c1 [Compound 1403] | > 100 | 4.30 to 6.00 |
| COc1ccc(C(=O)NCC(=O)N/N=C(\C)c2coc3ccccc23)cc1OC [Compound 439] | > 100 | 4.30 to 6.00 |
| CCSc1ccc(C(=O)NCC(=O)N/N=C/c2csc3ccccc23)cc1 [Compound 238] | 10 to 100 | > 6.00 |
| CCc1ccc(C(=O)CNC(=O)c2ccc(OCCO)c(OC)c2)nc1-c1csc2c(F)cccc12 [Compound 2106] | 10 to 100 | > 6.00 |
